Experimental data from patent US20250035641A1, “COMPOSITIONS AND METHODS RELATED TO PROTEIN LABELING” (The Chinese University of Hong Kong, priority 2023, published 2025).

Key:
[1] = molecular target: HTN-CK2α (Homo sapiens, UniProt P68400); assay: Immunoblot of HTN-CK2α O-GlcNAcylation in HeLa cells; type: cell-based; settings: 125 nM, 8 h
Description: FIG. 12: Immunoblotting analysis of effects of OGTAC-1 on HTN-CK2αin HeLa cell line. HeLa cells were transfected with fOGT:HTN-CK2α=1:0.1 for 24 h, followed by treatment of OGTAC-1 (125 nM) or other probes for 8 h. For OGTAC-1H, ‘++’ denotes 10-fold concentration of OGTAC-1, while “+” denote the same concentration of OGTAC-1. The quantification was conducted by immunoblot signal of RL2 relative to CK2α. as the mean±s.e.m. of n=3 biologically independent experiments. Statistical significance was calculated by unpaired t-tests.
S347 is a well-defined O-GlcNAcylation site on CK2α, while S348 is the potential alternative site as it is adjacent to S347. To verify the O-GlcNAc sites induced by OGTAC-1 in HTN-CK2α. we constructed HTN-CK2α plasmids with S347A and S347A/S348A mutations. […] Collectively, these findings support the physiological relevance of O-GlcNAcylation induced by OGTAC-1.

[2] = molecular target: T1, HTN-BRD4 (Homo sapiens, UniProt O60885+P62942, F37V); assay: IP-WB of HTN-BRD4 O-GlcNAcylation with truncated 0tfOGT; type: cell-based; settings: 0tfOGT:HTN-BRD4 system, 4 h
T1 construct: HaloTag fragment; expressed in transfected cells; host or cells: HEK293T
Description: FIGS. 7A-7E: Specificity and reversibility of OGTAC strategy. […] (B), Constructs of fOGT with 13.5 (rounded to 13) TPR and 0TPR-fOGT (0tfOGT). (C). […] (D), Dose-dependent O-GlcNAcylation profile of HTN-BRD4 by OGTAC-4 treatment. HEK293T cells expressing HTN-BRD4:0tfOGT=1:0.05 were treated with an increasing concentration of OGTAC-4 for 4 h. Then, the O-GlcNAcylation level of HTN-BRD4 was assessed by immunoblot after IP using BRD4 antibody. All quantifications are shown as mean±s.e.m. of n=3 biologically independent experiments. (E), Reversible effect of OGTAC-4 on HTN-BRD4 can be achieved by addition of AP1867. HEK293T cells expressing HTN-BRD4:0tfOGT=1:0.05 were pretreated with OGTAC-4 (500 nM) or DMSO for 4 h, and culturing media were replaced by fresh media with DMSO or AP1867 (50 μM) for the indicated time. The quantifications in right panel were conducted by the normalizing the fold-change (OGTAC-4/DMSO) for each post-washout time point to the value of 4 h pre-treatment. All quantifications are shown as mean±s.e.m. of 3 independent biological repeats. Statistical significance was calculated with ordinary one-way ANOVA comparing samples with different transfection conditions or OGTAC-treatment. ns, p≥0.05; *p<0.05; **p<0.01; ***p<0.001; ****p<0.0001.
We next applied OGTAC-4 to the 0tfOGT:HTN-BRD4 system, resulting in an 5-fold increase in O-GlcNAc level on BRD4. […]

T1 sequence (P62942 whole entry F37V, stated change not applied, other chains not shown, the tested form may be a part): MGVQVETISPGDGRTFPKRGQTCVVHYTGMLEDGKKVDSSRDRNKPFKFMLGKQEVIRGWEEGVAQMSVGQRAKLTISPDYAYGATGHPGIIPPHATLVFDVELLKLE
HTN-CK2α, sequence (P68400 with tags, fused parts or gaps): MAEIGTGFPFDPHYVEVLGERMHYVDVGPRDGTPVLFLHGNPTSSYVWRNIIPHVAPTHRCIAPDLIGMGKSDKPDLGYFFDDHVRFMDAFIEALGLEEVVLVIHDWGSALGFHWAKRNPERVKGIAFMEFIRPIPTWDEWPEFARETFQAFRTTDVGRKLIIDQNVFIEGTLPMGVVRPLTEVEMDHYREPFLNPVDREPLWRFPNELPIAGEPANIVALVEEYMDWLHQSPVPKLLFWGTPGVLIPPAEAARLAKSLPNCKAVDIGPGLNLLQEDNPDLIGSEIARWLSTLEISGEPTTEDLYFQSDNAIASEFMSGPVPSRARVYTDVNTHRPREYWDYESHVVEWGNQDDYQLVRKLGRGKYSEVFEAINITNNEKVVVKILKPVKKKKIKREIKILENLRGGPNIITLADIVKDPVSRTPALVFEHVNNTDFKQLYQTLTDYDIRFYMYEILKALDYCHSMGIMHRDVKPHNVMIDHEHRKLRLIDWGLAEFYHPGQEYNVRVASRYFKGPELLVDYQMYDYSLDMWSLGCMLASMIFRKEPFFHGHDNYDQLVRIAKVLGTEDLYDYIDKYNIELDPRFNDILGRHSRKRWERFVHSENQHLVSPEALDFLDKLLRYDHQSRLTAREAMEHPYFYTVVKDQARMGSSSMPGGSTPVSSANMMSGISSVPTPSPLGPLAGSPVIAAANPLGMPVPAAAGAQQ
HTN-CK2α, sequence (P62942+O15294 fused P62942:F37V partner): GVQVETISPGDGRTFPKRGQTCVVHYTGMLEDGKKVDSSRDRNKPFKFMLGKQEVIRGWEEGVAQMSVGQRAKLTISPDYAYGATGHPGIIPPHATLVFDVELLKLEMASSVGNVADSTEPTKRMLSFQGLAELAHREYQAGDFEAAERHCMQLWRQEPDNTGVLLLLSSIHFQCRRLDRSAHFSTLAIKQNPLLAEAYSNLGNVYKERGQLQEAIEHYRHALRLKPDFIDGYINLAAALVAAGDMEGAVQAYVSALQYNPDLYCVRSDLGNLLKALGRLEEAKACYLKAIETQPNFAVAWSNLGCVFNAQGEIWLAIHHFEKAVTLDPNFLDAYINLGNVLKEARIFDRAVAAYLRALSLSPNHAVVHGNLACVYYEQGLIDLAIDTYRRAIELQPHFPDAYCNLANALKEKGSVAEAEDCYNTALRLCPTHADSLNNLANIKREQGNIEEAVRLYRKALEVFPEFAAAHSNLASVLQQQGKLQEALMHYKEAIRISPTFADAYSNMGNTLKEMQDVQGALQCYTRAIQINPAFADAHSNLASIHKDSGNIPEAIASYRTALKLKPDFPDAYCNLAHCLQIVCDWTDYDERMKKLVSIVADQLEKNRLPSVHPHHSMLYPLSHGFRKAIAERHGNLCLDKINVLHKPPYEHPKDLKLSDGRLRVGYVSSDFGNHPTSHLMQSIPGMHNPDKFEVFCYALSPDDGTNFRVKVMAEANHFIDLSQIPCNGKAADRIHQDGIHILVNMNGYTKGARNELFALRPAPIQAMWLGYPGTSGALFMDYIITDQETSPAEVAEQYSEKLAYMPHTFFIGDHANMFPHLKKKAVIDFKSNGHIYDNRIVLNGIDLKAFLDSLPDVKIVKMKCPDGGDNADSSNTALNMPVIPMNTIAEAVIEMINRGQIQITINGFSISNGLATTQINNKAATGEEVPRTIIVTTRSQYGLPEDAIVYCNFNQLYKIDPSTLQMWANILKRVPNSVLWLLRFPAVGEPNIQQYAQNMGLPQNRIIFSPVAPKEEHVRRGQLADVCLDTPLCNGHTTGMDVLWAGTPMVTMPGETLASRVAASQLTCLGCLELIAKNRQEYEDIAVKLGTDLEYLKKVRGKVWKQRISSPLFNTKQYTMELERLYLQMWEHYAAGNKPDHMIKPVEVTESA

Row | effect on HTN-CK2α in HeLa cells [1] | fold increase in O-GlcNAc level on BRD4 [2] | Compound
1 | confirmed the effect | – | CC[C@H](C(=O)N1CCCC[C@H]1C(=O)O[C@H](CCc1ccc(OC)c(OC)c1)c1cccc(OCC(=O)NCCOCCOCCCCCCCl)c1)c1cc(OC)c(OC)c(OC)c1 [OGTAC-1, (R)-1-(3-(2-((2-(2-((6-chlorohexyl)oxy)ethoxy)ethyl)amino)-2-oxoethoxy)phenyl)-3-(3,4-dimethoxyphenyl)propyl (S)-1-((S)-2-(3,4,5-trimethoxyphenyl)butanoyl) piperidine-2-carboxylate]
2 | – | 5 fold | CC[C@H](C(=O)N1CCCC[C@H]1C(=O)O[C@H](CCc1ccc(OC)c(OC)c1)c1cccc(OCC(=O)NCCCCCCNC(=O)C[C@@H]2N=C(c3ccc(Cl)cc3)c3c(sc(C)c3C)-n3c(C)nnc32)c1)c1cc(OC)c(OC)c(OC)c1 [OGTAC-4, (R)-1-(3-(2-((6-(2-((S)-4-(4-chlorophenyl)-2,3,9-trimethyl-6H-thieno[3,2-f[]8 1,2,4]triazolo[4,3-a][1,4]diazepin-6-yl)acetamido)hexyl)amino)-2-oxoethoxy)phenyl)-3-(3,4-dimethoxyphenyl)propyl (S)-1-((S)-2-(3,4,5-trimethoxyphenyl)butanoyl)piperidine-2-carboxylate]
